Reference: article PMC6407917, “Identification of GSK3186899/DDD853651 as a Preclinical Development Candidate for the Treatment of Visceral Leishmaniasis” (Journal of Medicinal Chemistry, 2018)

Tests used:
Assay in all cases: biochemical
Set-up in all cases: species or system HEK293/K-562/placenta mixed human extract; Kinobeads chemoproteomic competition binding, quantified by TMT LC-MS/MS, dose response up to 20 uM
[1] = target: PRKD2 (Homo sapiens, UniProt Q9BZL6)
[2] = target: TAOK2 (Homo sapiens, UniProt Q9UL54)
[3] = target: AXL (Homo sapiens, UniProt P30530)
[4] = target: MAPK7 (Homo sapiens, UniProt Q13164)
[5] = target: MAP2K6 (Homo sapiens, UniProt P52564)
[6] = target: EPHB2 (Homo sapiens, UniProt P29323)
EPHB2, sequence (P29323 whole entry): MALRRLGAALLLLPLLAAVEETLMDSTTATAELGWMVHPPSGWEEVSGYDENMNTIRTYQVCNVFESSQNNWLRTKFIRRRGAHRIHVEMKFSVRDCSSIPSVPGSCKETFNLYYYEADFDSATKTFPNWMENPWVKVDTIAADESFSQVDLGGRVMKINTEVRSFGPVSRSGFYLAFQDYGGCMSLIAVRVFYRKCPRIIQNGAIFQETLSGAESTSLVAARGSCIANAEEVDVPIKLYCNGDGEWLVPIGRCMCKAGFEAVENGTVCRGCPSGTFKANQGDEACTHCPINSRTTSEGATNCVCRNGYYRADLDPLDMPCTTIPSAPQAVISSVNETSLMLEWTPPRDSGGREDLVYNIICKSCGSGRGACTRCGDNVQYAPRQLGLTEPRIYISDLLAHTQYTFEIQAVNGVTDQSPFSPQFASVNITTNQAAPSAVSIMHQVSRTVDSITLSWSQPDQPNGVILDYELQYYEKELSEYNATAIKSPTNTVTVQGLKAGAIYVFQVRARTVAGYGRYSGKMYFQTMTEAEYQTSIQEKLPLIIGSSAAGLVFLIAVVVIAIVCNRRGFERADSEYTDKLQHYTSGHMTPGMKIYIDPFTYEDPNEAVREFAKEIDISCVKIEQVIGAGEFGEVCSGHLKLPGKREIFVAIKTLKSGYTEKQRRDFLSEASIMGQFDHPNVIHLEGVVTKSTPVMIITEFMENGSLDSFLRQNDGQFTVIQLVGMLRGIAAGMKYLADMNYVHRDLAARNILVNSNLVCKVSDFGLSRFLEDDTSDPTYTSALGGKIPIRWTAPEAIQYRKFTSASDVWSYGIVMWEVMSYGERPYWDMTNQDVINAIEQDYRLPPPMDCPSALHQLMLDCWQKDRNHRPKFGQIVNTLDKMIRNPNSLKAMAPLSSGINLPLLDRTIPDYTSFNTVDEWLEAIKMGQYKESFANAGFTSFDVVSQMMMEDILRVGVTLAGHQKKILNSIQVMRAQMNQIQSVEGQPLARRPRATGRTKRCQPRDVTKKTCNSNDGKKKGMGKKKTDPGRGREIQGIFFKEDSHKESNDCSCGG

MAP2K6, sequence (P52564 whole entry): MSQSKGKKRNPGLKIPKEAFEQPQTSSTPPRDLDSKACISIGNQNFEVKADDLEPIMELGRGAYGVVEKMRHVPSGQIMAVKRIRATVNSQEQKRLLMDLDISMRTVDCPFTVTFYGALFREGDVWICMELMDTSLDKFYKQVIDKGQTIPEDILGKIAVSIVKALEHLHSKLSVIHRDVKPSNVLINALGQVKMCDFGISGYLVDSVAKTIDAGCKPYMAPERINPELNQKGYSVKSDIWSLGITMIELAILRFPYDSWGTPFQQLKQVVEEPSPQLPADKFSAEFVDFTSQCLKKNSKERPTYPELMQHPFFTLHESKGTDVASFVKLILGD
MAPK7, sequence (Q13164 whole entry): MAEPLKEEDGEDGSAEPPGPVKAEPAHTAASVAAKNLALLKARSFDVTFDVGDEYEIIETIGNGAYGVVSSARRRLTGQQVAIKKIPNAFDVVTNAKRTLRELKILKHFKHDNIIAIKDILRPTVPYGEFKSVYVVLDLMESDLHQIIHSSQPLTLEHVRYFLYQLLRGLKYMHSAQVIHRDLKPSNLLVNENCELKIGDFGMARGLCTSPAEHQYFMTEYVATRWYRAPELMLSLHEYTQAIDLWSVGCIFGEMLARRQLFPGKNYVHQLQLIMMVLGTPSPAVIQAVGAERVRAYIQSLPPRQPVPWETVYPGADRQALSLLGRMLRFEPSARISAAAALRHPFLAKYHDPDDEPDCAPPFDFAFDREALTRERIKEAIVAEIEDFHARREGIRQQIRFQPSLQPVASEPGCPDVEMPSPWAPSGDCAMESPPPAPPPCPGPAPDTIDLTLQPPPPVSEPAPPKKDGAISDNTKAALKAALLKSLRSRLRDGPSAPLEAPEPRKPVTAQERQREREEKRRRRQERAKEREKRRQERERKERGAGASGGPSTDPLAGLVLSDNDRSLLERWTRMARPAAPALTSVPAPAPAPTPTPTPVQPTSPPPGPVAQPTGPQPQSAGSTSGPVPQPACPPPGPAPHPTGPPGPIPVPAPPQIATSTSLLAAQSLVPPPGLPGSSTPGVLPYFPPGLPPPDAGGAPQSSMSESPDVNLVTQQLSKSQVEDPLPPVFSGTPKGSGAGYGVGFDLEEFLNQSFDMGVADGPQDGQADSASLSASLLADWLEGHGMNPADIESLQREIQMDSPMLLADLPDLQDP
AXL, sequence (P30530 whole entry): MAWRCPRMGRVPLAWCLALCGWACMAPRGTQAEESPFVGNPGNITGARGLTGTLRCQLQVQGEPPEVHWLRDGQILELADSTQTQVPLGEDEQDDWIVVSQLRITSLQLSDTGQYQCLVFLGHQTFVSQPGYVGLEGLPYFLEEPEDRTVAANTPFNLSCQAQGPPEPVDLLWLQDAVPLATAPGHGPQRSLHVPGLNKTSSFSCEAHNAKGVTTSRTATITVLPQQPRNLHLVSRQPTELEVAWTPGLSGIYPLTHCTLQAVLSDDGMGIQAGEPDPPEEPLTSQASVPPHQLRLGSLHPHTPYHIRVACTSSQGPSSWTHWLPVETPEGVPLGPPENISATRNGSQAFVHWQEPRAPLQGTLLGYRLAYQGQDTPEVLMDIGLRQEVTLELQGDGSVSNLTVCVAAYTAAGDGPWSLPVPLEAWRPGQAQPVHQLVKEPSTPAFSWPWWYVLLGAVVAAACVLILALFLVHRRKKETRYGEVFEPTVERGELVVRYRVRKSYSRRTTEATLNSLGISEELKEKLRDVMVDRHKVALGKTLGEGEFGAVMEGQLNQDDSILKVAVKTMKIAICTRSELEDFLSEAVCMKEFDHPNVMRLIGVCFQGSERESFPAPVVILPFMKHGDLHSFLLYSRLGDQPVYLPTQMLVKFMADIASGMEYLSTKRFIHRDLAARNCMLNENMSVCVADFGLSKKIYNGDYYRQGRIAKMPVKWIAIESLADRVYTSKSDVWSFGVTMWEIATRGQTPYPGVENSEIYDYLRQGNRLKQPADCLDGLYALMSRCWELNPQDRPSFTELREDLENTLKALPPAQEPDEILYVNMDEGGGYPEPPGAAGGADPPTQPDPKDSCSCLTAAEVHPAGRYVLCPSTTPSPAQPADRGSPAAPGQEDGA
TAOK2, sequence (Q9UL54 whole entry): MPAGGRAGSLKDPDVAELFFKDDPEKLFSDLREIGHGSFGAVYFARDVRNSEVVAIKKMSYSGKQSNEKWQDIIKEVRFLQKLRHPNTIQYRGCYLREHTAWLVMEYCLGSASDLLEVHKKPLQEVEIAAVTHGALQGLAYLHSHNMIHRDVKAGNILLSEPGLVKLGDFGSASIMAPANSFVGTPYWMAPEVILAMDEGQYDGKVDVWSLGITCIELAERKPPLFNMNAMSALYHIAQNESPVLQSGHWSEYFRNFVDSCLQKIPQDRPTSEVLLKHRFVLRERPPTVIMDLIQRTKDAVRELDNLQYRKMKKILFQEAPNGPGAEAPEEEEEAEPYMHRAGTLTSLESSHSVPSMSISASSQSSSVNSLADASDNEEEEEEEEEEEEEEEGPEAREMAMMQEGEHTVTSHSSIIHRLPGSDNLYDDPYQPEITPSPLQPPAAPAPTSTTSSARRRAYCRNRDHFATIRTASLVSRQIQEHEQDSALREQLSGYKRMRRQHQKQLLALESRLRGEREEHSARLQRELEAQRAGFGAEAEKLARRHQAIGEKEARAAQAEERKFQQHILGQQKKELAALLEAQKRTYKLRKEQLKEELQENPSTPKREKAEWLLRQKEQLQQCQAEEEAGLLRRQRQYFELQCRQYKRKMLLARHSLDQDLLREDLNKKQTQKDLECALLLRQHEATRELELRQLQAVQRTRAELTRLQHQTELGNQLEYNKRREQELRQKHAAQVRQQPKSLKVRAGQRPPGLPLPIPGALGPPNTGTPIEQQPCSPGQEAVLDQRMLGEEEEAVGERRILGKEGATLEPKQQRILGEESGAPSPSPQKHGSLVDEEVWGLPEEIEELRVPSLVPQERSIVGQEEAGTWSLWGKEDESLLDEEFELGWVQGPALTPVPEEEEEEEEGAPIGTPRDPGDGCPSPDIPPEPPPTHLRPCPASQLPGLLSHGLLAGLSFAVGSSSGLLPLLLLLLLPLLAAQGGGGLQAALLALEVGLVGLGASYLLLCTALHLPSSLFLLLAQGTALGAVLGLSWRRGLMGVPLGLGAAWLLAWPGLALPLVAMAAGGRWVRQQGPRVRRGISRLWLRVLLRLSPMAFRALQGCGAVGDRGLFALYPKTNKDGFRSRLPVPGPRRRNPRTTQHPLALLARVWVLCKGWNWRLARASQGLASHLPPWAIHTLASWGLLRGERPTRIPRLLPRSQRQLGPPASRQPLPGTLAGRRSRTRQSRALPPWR

COc1ccccc1-c1n[nH]c2nc(N[C@H]3CC[C@H](NS(=O)(=O)CCC(F)(F)F)CC3)nc(OC)c12 [compound 31, 3,3,3-Trifluoro-N-(trans-4-((4-methoxy-3-(2-methoxyphenyl)-1H-pyrazolo[3,4-d]pyrimidin-6-yl)amino)cyclohexyl)propane-1-sulfonamide]
IC50 [1]: ≥ 20 µM | IC50 [2]: 5.2 µM | IC50 [3]: ≥ 20 µM | IC50 [4]: ≥ 20 µM | IC50 [5]: ≥ 20 µM | IC50 [6]: ≥ 20 µM
